The values below come from patent US20230226106A1 (priority 2017, published 2023).

This series has as its system Human umbilical cord endothelial cells. The format is cell-based. The text has this: The toxicity of each component is checked on Human cell lines (Human umbilical cord endothelial cells).

On to `O=C(O)c1cc(O)c(O)c(O)c1` [Gallic acid], for which the human cell growth (treatment with as much as 250 μg/mL) is reported as 100%. For `CCCCCCCCCCCCC/C=C/[C@@H](O)[C@@H](N)COP(=O)(O)O` [Sphingosine-1-phosphate, Sphingosine-1-Phosphate], under “Human umbilical cord endothelial cells”, the toxicity entry was “not toxic”. Also, under “at as low as 1 μM concentration”, the proliferation of cells result is reported as “proliferative”.
